Here are results for 1 molecule from US12558345B2, “CHK1/2 inhibitors for use in the treatment of neuroblastomas and/or soft tissue sarcomas” (Eli Lilly and Company, priority 2015, dated 2026).

This assay has as its system SH-SY5Y human NBM cancer cell xenograft. Kind of assay: Xenograft Tumor Model SH-SY5Y. It counts as in vivo, mouse. Conditions: comparator day 28, 8 mg/kg dose, p-value <0.001. The procedure: The following protocol can be used to measure reductions in tumor volume in response to an active pharmaceutical ingredient. Expand human NBM cancer cells SH-SY5Y (ATCC, #CRL-2226) in culture, harvest, and inject 5×10^6 cells in 200 μL of 1:1 solution of HBSS and Matrigel® subcutaneously into the right rear flank of female CD-1 nu/nu mice (20-24 g, Charles River Laboratories). Expand human NBM cancer cells KELLY (Sigma-#92110411) in culture, harvest, and inject 5×10^6 cells in 200 μL of 1:1 solution of HBSS and Matrigel® subcutaneously into the right rear flank of female CB-17 SCID mice (20-24 g, Charles River Laboratories). Expand human NBM cancer cells IMR-32 (ATCC, #CCL-127) in culture, harvest, and inject 5×10^6 cells in 200 μL of 1:1 solution of HBSS and Matrigel® subcutaneously into the right rear flank of female CB-17 SCID mice (20-24 g, Charles River Laboratories).
For all “ST” models (encompassing RMS and LMS), patient-derived xenografts are established from viable human tumor tissue and are serially passaged in animals a limited number of times to maintain tumor heterogeneity. […] Tumor response is determined by tumor volume measurement performed twice per week during the course of treatment.

Turning to `COc1cccc(OCCCN)c1-c1cc(Nc2cnc(C#N)cn2)n[nH]1` [Example 5, 5-(5-(2-(3-Aminopropoxy)-6-methoxyphenyl)-1H-pyrazol-3-ylamino)pyrazine-2-carbonitrile methanesulfonic acid monohydrate], the “% Regression” value is −21%.
